The source of these data is patent US20090246134A1, “COMPOSITIONS AND METHODS FOR MODULATING GATED ION CHANNELS” (PainCeptor Pharma Corporation, priority 2007, published 2009).

The nature of data set [1]: Liver microsomes stability and metabolite identification (LC-MS), dog. The data set is classed as in vitro ADME.
Data set [2] deals with T1, ASIC1a (Homo sapiens, UniProt P78348).
T1 sequence (P78348 1-528): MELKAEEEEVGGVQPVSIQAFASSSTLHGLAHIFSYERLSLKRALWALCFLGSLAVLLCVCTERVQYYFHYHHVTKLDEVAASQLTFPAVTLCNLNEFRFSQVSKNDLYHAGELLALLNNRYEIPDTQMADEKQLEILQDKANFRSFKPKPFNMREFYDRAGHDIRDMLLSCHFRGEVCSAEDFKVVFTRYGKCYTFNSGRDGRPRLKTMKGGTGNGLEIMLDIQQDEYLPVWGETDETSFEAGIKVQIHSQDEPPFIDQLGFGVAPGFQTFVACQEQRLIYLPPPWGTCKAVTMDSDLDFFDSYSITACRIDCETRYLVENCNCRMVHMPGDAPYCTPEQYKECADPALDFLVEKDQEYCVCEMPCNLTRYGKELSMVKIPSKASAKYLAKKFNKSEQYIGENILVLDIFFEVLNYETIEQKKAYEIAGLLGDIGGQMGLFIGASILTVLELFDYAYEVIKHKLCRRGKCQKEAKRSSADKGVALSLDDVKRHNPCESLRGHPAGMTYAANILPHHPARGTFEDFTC
Briefly: Whole cell patch clamp in heterologous expression system (CHO cells). The data set is classed as cell-based. The arrangement: expressed in transfected cells; host or cells: CHO cells. Here is the method:
Another example of an in vitro assessment method consists of using mammalian heterologous expression systems, which are known to the skilled in the art, and include a variety of mammalian cell lines such as COS, HEK, e.g., HEK293 and/or CHO, cells. Cell lines are transfected with gated ion channel(s) and used to perform electrophysiology as follows:
All experiments are performed at room temperature (20-25° C.) in voltage clamp using conventional whole cell patch clamp methods (Neher, E., et al. (1978) Pfluegers Arch 375:219-228).
The amplifier used is the EPC-9 (HEKA-electronics, Lambrect, Germany) run by a Macintosh G3 computer via an ITC-16 interface. Experimental conditions are set with the Pulse-software accompanying the amplifier. Data is low pass filtered and sampled directly to hard-disk at a rate of 3 times the cut-off frequency.
Pipettes are pulled from borosilicate glass using a horizontal electrode puller (Zeitz-lnstrumente, Augsburg, Germany). The pipette resistances are 2-3 MOhms in the salt solutions used in these experiments. The pipette electrode is a chloridized silver wire, and the reference is a silver chloride pellet electrode (In Vivo Metric, Healdsburg, USA) fixed to the experimental chamber. The electrodes are zeroed with the open pipette in the bath just prior to sealing.
Coverslips with the cells are transferred to a 15 μl experimental chamber mounted on the stage of an inverted microscope (IMT-2, Olympus) supplied with Nomarski optics. Cells are continuously superfused with extracellular saline at a rate of 2.5 ml/min. After giga-seal formation, the whole cell configuration is attained by suction. The cells are held at a holding voltage of −60 mV and at the start of each experiment the current is continuously measured for 45 s to ensure a stable baseline. […] Current amplitudes are measured at the peak of the responses, and effect of the compounds is calculated as the amplitude at compound equilibrium divided by the amplitude of the current evoked by the pulse just before the compound was included. […]

In data set [3] the test system is native sensory-neuron gated ion channels. Put plainly: Patch-clamp electrophysiology of sensory neurons in primary culture. The data set is classed as cell-based, rat. As to conditions: n=3. An excerpt:
This example describes another in vitro assessment of the inhibitory activity of the compounds of the present invention utilizing patch-clamp electrophysiology of sensory neurons in primary culture.
Sensory neurons can be isolated and cultured in vitro from different animal species. The most widely used protocols use sensory neurons isolated from neonatal (Eckert, et al. (1997) J Neurosci Methods 77:183-190) and embryonic (Vasko, et al. (1994) J Neurosci 14:4987-4997) rat. […] Electrophysiology is performed similarly as described above in Example 2. In the voltage-clamp mode, trans-membrane currents are recorded. Compounds A and H at 1 μM inhibit the pH 6.5-induced inward current. In the current-clamp mode, change in the trans-membrane potential are recorded. Under acidic conditions (e.g., pH 6.5) the membrane depolarizes, leading to the firing of action potentials. Compounds A and H at 1 μM inhibit the acid-induced membrane depolarization and reduce the ensuing rate of action potential firing.

Setting [4] is: dog microsomes 60 min (samples 23-25).

“And” between values parts separate entries of the source, which are not always exact repeats. Equal entries are not always repeated.

For the compound `COc1ccc(F)cc1-c1cc2c(c3c1CCN(C)C3)NC(=O)C2=NO` [Compound A, 5-(5-fluoro-2-methoxyphenyl)-6,7,8,9-tetrahydro-3-(hydroxyimino)-8-methyl-1H-pyrrolo[3,2-h]isoquinoline-2(3H)-one], the Total % metabolites in data set [1] (% peak area relative to parent at T0, 60 min incubation, dog microsomes) is recorded as 2.74%. In data set [1] (setting [4]), the “Compound A metabolite identification: m/z 342” value is on record as “weak”, the “Compound A metabolite identification: m/z 356 (parent)” value is recorded as “Yes”, the “Compound A metabolite identification: m/z 372” value is “Yes” and the “Compound A metabolite identification: m/z 412” value was “no”. In addition, the “Calc. Conc.” value in data set [1] (dog microsomes, time 0 min) is 4.71 µM and 5.14 µM. Also, in data set [1] (dog microsomes, time 60 min), the “Calc. Conc.” value was 3.95 µM and 4.05 µM and 4.10 µM. For the same compound, in data set [2], the “human ASIC1a pH-evoked response” value is “reduce the human ASIC1a pH-evoked response in CHO cells in a dose-dependent manner” and the “potency relative to amiloride on human ASIC1a pH-evoked response” value is recorded as “about 100 fold”. The acid-induced membrane depolarization result in data set [3] (current-clamp mode, 1 μM) is reported as “inhibit”. Also, the “rate of action potential firing” value in data set [3] (current-clamp mode, acidic conditions, 1 μM) is given as “reduce”. Moreover, the “activity of native sensory-neuron gated ion channels” value in data set [3] is on record as “effectively modulate”. Further, the “pH 6.5-induced inward current” value in data set [3] (voltage-clamp mode, 1 μM) is “inhibit”.
